Results as given in paper PMC8175350, “Drug repurposing screens identify chemical entities for the development of COVID-19 interventions” (Nature Communications, 2021).
Where a name gives a salt, the structure may show the parent alone. Read-outs that look alike come from different tables or passages of the source.

Legend:
SARS-CoV-2 [1] = assay: microbe, parasite or virus in culture; format: cell-based; settings: for EC50: read-out: HeLa-ACE2 CoV-2 EC50 GeoMean
HepG2 = HepG2 72 h CellTiter-Glo cytotoxicity; settings: 72 h
Calu-3 cells [2] = settings: for EC50: read-out: Calu-3 cell count EC50 GeoMean
HeLa-ACE2 cells [3] = settings: for EC50: read-out: HeLa-ACE2 cell count EC50 GeoMean
HEK293T = HEK293T 72 h CellTiter-Glo cytotoxicity; settings: 72 h
HeLa-ACE2 cells [4] = assay: cells; format: cell-based, human; settings: read-out: HeLa-ACE2 TOA cell count EC50 GeoMean
SARS-CoV-2 [5] = assay: microbe, parasite or virus in culture; format: cell-based
Calu-3 cells [6] = assay: Uninfected Calu-3 48 h Cell-Titer Glo cytotoxicity counter screen; settings: for CC50: read-out: Calu-3 uninfected cytotoxicity CC50 GeoMean
HeLa-ACE2 cells [7] = assay: Uninfected HeLa-ACE2 24 h live/dead cytotoxicity counter screen; format: cell-based, human; settings: for CC50: read-out: HeLa-ACE2 uninfected cytotoxicity CC50 GeoMean
SARS-CoV-2 [8] = format: cell-based; settings: combination with remdesivir
SARS-CoV-2 [9] = assay: microbe, parasite or virus in culture; format: cell-based; remark: listed apart in the source
HeLa-ACE2 cells [10] = assay: cells; settings: Homo sapiens, HeLa-ACE2, read-out: HeLa-ACE2 cell count EC50 GeoMean, unrounded geometric mean
[11] = Uninfected Calu-3 48 h Cell-Titer Glo cytotoxicity counter screen; settings: human, uninfected Calu-3 cells, Calu-3 uninfected cytotoxicity CC50 GeoMean, unrounded geometric mean
[12] = Uninfected HeLa-ACE2 24 h live/dead cytotoxicity counter screen; format: cell-based, human; settings: human, uninfected HeLa-ACE2 cells, unrounded geometric mean; read-out: HeLa-ACE2 uninfected cytotoxicity CC50 GeoMean
Calu-3 cells [13] = assay: cells; settings: Homo sapiens
SARS-CoV-2 [14] = format: cell-based
[15] = curve plateau at infinite concentration
[16] = curve-fit effect at infinite concentration, average
[17] = unrounded geometric mean, read-out: Calu-3 CoV-2 EC50 GeoMean

With `CN(C)CC1=C[CH]([Fe][CH]2C=CC=C2)C=C1CNc1ccnc2cc(Cl)ccc12` (stereo not drawn) [Ferroquine] the “HeLa-ACE2 CoV-2 Sinf Average” value (SARS-CoV-2 [1]; [15]) was -97%, the EC50 (SARS-CoV-2 [1]; detail block) was 1.31 µM and the “HeLa-ACE2 SI” value (SARS-CoV-2 [1]; selectivity index, uninfected HeLa-ACE2 CC50 / SARS-CoV-2 EC50) was 10.29. For the same molecule, the “HepG2 72-hour cytotoxicity Sinf Average” value (HepG2) was -100%, the CC50 (HepG2; read-out: HepG2 72-hour cytotoxicity CC50 GeoMean) was 4.72 µM and the EC50 (Calu-3 cells [2]; detail block) was over 9.98 µM. For the same molecule, the “HeLa-ACE2 cell count Sinf Average” value (HeLa-ACE2 cells [3]; [15]) was -53%, the EC50 (HeLa-ACE2 cells [3]; detail block) was over 6.8 µM and the “HEK293T 72-hour cytotoxicty Sinf Average” value (HEK293T) was -100%. For the same molecule, the CC50 (HEK293T; read-out: HEK293T 72-hour cytotoxicty CC50 GeoMean) was 7.24 µM, the EC50 (HeLa-ACE2 cells [4]) was over 9.59 µM and the “Calu-3 CoV-2 Sinf Average” value (SARS-CoV-2 [5]; [15]) was -100%. For the same molecule, the EC50 (SARS-CoV-2 [5]; read-out: Calu-3 CoV-2 EC50 GeoMean) was over 9.98 µM, the “Calu-3 uninfected cytotoxicity Sinf Average” value (Calu-3 cells [6]; [15]) was -100% and the CC50 (Calu-3 cells [6]; detail block) was 17.5 µM. The “HeLa-ACE2 uninfected cytotoxicity Sinf Average” value (HeLa-ACE2 cells [7]; [15]) was -100%, the CC50 (HeLa-ACE2 cells [7]; detail block) was 13.4 µM and the “HeLa-ACE2 synergy score with remdesivi” value (SARS-CoV-2 [8]) was -2.076 δ. For the same molecule, the “TOA:HeLa-ACE2 EC50 Ratio” value (SARS-CoV-2 [9]) was 7.345, the “HeLa-ACE2 TOA CoV-2 Sinf Average” value (SARS-CoV-2 [9]; [15]) was -100% and the EC50 (SARS-CoV-2 [9]; read-out: HeLa-ACE2 TOA CoV-2 EC50 GeoMean) was over 9.59 µM.
Work on `N=C(N)c1ccc2cc(OC(=O)c3ccc(N=C(N)N)cc3)ccc2c1` [Nafamostat mesylate] yielded an EC50 (SARS-CoV-2 [1]; Severe acute respiratory syndrome coronavirus 2, HeLa-ACE2, unrounded geometric mean) of over 9.59 µM, an EC50 (HeLa-ACE2 cells [10]) of over 9.59 µM and an Emax (SARS-CoV-2 [5]; Severe acute respiratory syndrome coronavirus 2, Calu-3, 48 h, curve-fit effect at infinite concentration, average, read-out: Calu-3 CoV-2 Sinf Average) of 93%. The EC50 (SARS-CoV-2 [5]; Severe acute respiratory syndrome coronavirus 2, Calu-3, unrounded geometric mean, read-out: Calu-3 CoV-2 EC50 GeoMean) was 0.024 µM, the EC50 (SARS-CoV-2 [5]; Severe acute respiratory syndrome coronavirus 2, Calu-3, geomean, read-out: SARS-CoV-2 EC50) was 0.024 µM and the “Calu-3 uninfected cytotoxicity Sinf Average” value (Calu-3 cells [6]; [16]) was -100%. For the same molecule, the CC50 at 48 h [11] was over 29.9 µM, the CC50 at 24 h [12] was over 39.8 µM and the Emax (Calu-3 cells [13]; Calu-3, 48 h, read-out: Calu-3 cell count Sinf Average) was 100%. For the same molecule, the EC50 (Calu-3 cells [13]; Calu-3, read-out: Calu-3 cell count EC50 GeoMean, unrounded geometric mean) was 0.04 µM, the EC50 (Calu-3 cells [13]; Calu-3, read-out: cell count EC50, Calu-3, geomean, ^↑ = increasing dose-response curve) was 0.04 µM and the “effect on viral replication in ALI-HBECs” value (SARS-CoV-2 [14]) was “inhibited viral replication”.
For `CCN(CC)CCCNc1nccc2c(C)c3[nH]c4ccc(O)cc4c3c(C)c12` [SR-26050], the “HeLa-ACE2 CoV-2 Sinf Average” value (SARS-CoV-2 [1]; [16]) was -101%, the EC50 (SARS-CoV-2 [1]; unrounded geometric mean) was 0.359 µM and the EC50 (Calu-3 cells [2]; unrounded geometric mean) was over 9.98 µM. The “HeLa-ACE2 cell count Sinf Average” value (HeLa-ACE2 cells [3]; [16]) was -103%, the EC50 (HeLa-ACE2 cells [3]; unrounded geometric mean) was 0.48 µM and the “Calu-3 CoV-2 Sinf Average” value (SARS-CoV-2 [5]) was -103%. The EC50 (SARS-CoV-2 [5]; [17]) was 0.503 µM, the “Calu-3 uninfected cytotoxicity Sinf Average” value (Calu-3 cells [6]; [16]) was -100% and the CC50 (Calu-3 cells [6]; unrounded geometric mean) was 5.84 µM. The “HeLa-ACE2 uninfected cytotoxicity Sinf Average” value (HeLa-ACE2 cells [7]; [16]) was -98% and the CC50 (HeLa-ACE2 cells [7]; unrounded geometric mean) was 0.602 µM.
In the case of Antimycin A3, the EC50 (SARS-CoV-2 [1]; unrounded geometric mean) is reported as over 9.59 µM, the “Calu-3 cell count Sinf Average” value (Calu-3 cells [2]; [16]) is reported as 47% and the EC50 (Calu-3 cells [2]; unrounded geometric mean) is reported as 0.0626 µM. For the same molecule, the EC50 (HeLa-ACE2 cells [3]; unrounded geometric mean) was over 9.59 µM, the “Calu-3 CoV-2 Sinf Average” value (SARS-CoV-2 [5]; [16]) was -92% and the EC50 (SARS-CoV-2 [5]; [17]) was 0.0355 µM. The “Calu-3 uninfected cytotoxicity Sinf Average” value (Calu-3 cells [6]; [16]) was -79%, the CC50 (Calu-3 cells [6]; unrounded geometric mean) was over 3.9 µM and the “HeLa-ACE2 uninfected cytotoxicity Sinf Average” value (HeLa-ACE2 cells [7]; [16]) was -100%. The CC50 (HeLa-ACE2 cells [7]; unrounded geometric mean) was over 39.8 µM.
